The source of these data is patent publication US12122781B2, “Hydrates of polymorphs of 6-(1H-indazol-6-yl)-N-(4-morpholinophenyl)-2,3-dihydroimidazo[1,2-a]pyrazin-8-amine bis-mesylate as Syk inhibitors” (Kronos Bio, Inc., priority 2017, dated 2024).

Holding throughout (format): physicochemical
Data set [1] in a line: XRPD analysis of the sample after the DVS experiment (solid form stability to humidity). The following applies: after DVS cycle 5% RH to 95% RH and back at 25° C. As for the experimental part:
X-ray powder diffraction (XRPD) analysis was conducted on a diffractometer (PANalytical XPERT-PRO, PANalytical B. V., Almelo, Netherlands) using copper radiation (Cu Kα, λ=1.541874). Samples were spread evenly on a zero background sample plate. The generator was operated at a voltage of 45 kV and amperage of 40 mA. Slits were Soller 0.02 rad, antiscatter 1.0°, and divergence. Scans were performed from 2 to 40° 2θ with a 0.0167 step size. Data analysis was performed using X′Pert Data Viewer V1.2d (PANalytical B. V., Almelo, Netherlands).
(§1) Hygroscopicity was studied using dynamic vapor sorption (DVS, TA Q5000 SA, TA Instruments, New Castle, DE or DVS, DVS Intrinsic, Surface Measurement Systems, London, UK). A sample (2-20 mg) was placed in an aluminum DVS pan and loaded on the sample side of the twin pan balance. The water sorption and desorption were studied as a function of relative humidity (RH) at 25° C. In 10% RH increments, the relative humidity was increased from 5% RH to 95% RH and then decreased back to 5%. […] Data analysis was performed using Universal Analysis 2000 Version 4.7A (TA Instruments, New Castle, DE) for TA DVS runs and Microsoft Excel for SMS DVS runs.

Data set [2] in a line: Hygroscopicity by dynamic vapor sorption (DVS). The following applies: up to 95% RH at 25° C.; bis-mesylate. As for the experimental part:
as §1

The nature of data set [3]: Solid form stability at ambient conditions. The settings on record: before KF could be run.

For the compound `C1=C(c2ccc3cn[nH]c3c2)N=C(Nc2ccc(N3CCOCC3)cc2)C2=NCCN12.CS(=O)(=O)O.CS(=O)(=O)O` [Amorphous form, 6-(1H-indazol-6-yl)-N-(4-morpholinophenyl)-2,3-dihydroimidazo[1,2-a]pyrazin-8-amine bis-mesylate], the “solid form found by XRPD after the DVS experiment” value (from here on “solid form found by XRPD”) in data set [1] is “converted to Form VII”. Moreover, in data set [2], the “water absorbed (dynamic vapor sorption)” value is recorded as “about 38 wt. %”.

For the compound `C1=C(c2ccc3cn[nH]c3c2)N=C(Nc2ccc(N3CCOCC3)cc2)C2=NCCN12.CS(=O)(=O)O.CS(=O)(=O)O` [Form I, 6-(1H-indazol-6-yl)-N-(4-morpholinophenyl)-2,3-dihydroimidazo[1,2-a]pyrazin-8-amine bis-mesylate], the “solid form found by XRPD” value in data set [1] is on record as “converted to Form VII”. In data set [2], the “water absorbed (dynamic vapor sorption)” value is recorded as “about 30 wt. %”.

As for `C1=C(c2ccc3cn[nH]c3c2)N=C(Nc2ccc(N3CCOCC3)cc2)C2=NCCN12.CS(=O)(=O)O.CS(=O)(=O)O` [Form II, 6-(1H-indazol-6-yl)-N-(4-morpholinophenyl)-2,3-dihydroimidazo[1,2-a]pyrazin-8-amine bis-mesylate], the “solid form found by XRPD” value in data set [1] is “converted to Form VII”. Further, the “water absorbed (dynamic vapor sorption)” value in data set [2] was “about 30 wt. %”.

As to `C1=C(c2ccc3cn[nH]c3c2)N=C(Nc2ccc(N3CCOCC3)cc2)C2=NCCN12.CS(=O)(=O)O.CS(=O)(=O)O` [Form VI, 6-(1H-indazol-6-yl)-N-(4-morpholinophenyl)-2,3-dihydroimidazo[1,2-a]pyrazin-8-amine bis-mesylate], the “solid form found by XRPD” value in data set [1] was “converted to Form VII”. The “water absorbed (dynamic vapor sorption)” value in data set [2] was roughly 17 wt. %.

Take `C1=C(c2ccc3cn[nH]c3c2)N=C(Nc2ccc(N3CCOCC3)cc2)C2=NCCN12.CS(=O)(=O)O.CS(=O)(=O)O` [Form XIII, 6-(1H-indazol-6-yl)-N-(4-morpholinophenyl)-2,3-dihydroimidazo[1,2-a]pyrazin-8-amine bis-mesylate]: in data set [1], the “solid form found by XRPD” value is listed as “converted to Form VII”. The “stability of the polymorphic form at ambient conditions” value in data set [3] is “unstable at ambient conditions”. Besides, the “water absorbed (dynamic vapor sorption)” value in data set [2] is roughly 25 wt. %.

With `C1=C(c2ccc3cn[nH]c3c2)N=C(Nc2ccc(N3CCOCC3)cc2)C2=NCCN12.CS(=O)(=O)O.CS(=O)(=O)O` [Form XIV, 6-(1H-indazol-6-yl)-N-(4-morpholinophenyl)-2,3-dihydroimidazo[1,2-a]pyrazin-8-amine bis-mesylate], in data set [1], the “solid form found by XRPD” value is recorded as “converted to Form VII”. The “water absorbed (dynamic vapor sorption)” value in data set [2] is reported as “about 35 wt. %”.

As to `C1=C(c2ccc3cn[nH]c3c2)N=C(Nc2ccc(N3CCOCC3)cc2)C2=NCCN12.CS(=O)(=O)O.CS(=O)(=O)O` [Form XIX, 6-(1H-indazol-6-yl)-N-(4-morpholinophenyl)-2,3-dihydroimidazo[1,2-a]pyrazin-8-amine bis-mesylate], in data set [1], the “solid form found by XRPD” value was “converted to Form VII”. For the same compound, in data set [2], the “water absorbed (dynamic vapor sorption)” value is given as “about 28 wt. %”.

Consider `C1=C(c2ccc3cn[nH]c3c2)N=C(Nc2ccc(N3CCOCC3)cc2)C2=NCCN12.CS(=O)(=O)O.CS(=O)(=O)O` [Form XV, 6-(1H-indazol-6-yl)-N-(4-morpholinophenyl)-2,3-dihydroimidazo[1,2-a]pyrazin-8-amine bis-mesylate], for which, in data set [1], the “solid form found by XRPD” value is reported as “converted to Form VII”. Moreover, the “water absorbed (dynamic vapor sorption)” value in data set [2] is on record as roughly 23 wt. %.

As for `C1=C(c2ccc3cn[nH]c3c2)N=C(Nc2ccc(N3CCOCC3)cc2)C2=NCCN12.CS(=O)(=O)O.CS(=O)(=O)O` [Form XVI, 6-(1H-indazol-6-yl)-N-(4-morpholinophenyl)-2,3-dihydroimidazo[1,2-a]pyrazin-8-amine bis-mesylate], the “solid form found by XRPD” value in data set [1] is on record as “converted to Form VII”. Moreover, the “water absorbed (dynamic vapor sorption)” value in data set [2] is roughly 28 wt. %.

With `C1=C(c2ccc3cn[nH]c3c2)N=C(Nc2ccc(N3CCOCC3)cc2)C2=NCCN12.CS(=O)(=O)O.CS(=O)(=O)O` [Form XVIII, 6-(1H-indazol-6-yl)-N-(4-morpholinophenyl)-2,3-dihydroimidazo[1,2-a]pyrazin-8-amine bis-mesylate], the “solid form found by XRPD” value in data set [1] was “converted to Form VII”.
